In PMC6949291, “An evolutionarily conserved iron-sulfur cluster underlies redox sensory function of the Chloroplast Sensor Kinase” (Communications Biology, 2020):

What was measured:
Syn-CSK (Hik2) = biological target: T1, Syn-CSK (Hik2) (Synechocystis sp. PCC 6803, UniProt P73276); test: autophosphorylation, autoradiography; type: biochemical; details: 0.5 mM, MgCl2, pH 8, 22 °C, reductant of the [3Fe-4S] cluster, inhibitor of autokinase activity
T1 construct: octamer

[1] = biological target: the molecule itself; test: SEC; Superdex 200 10/300GL Increase; air-oxidized protein eluted with 20 mM Tris-HCl pH 8 and 10 mM NaCl (legend; methods say 20 mM NaCl), or the same buffer with 2 mM sodium dithionite; mass from a calibration curve

Molecule | autophosphorylation with [γ-^32P]ATP, autoradiography (Syn-CSK (Hik2)) | stoichiometry N [1]
Cc1c(C)c(O)c(C)c(C)c1O [duroquinol] | Treatment with reducing agents: dithionite, duroquinol, or decylPQH2 inhibit Syn-CSK | –
Synechocystis sp. PCC 6803 Histidine kinase 2 (Hik2), reconstituted holoprotein (enzyme, UniProt P73276 1-434, looked up, Histidine kinase 2 (Hik2, slr1147), the cyanobacterial CSK homologue, Synechocystis sp; Each monomer carries one [3Fe-4S] cluster (holoprotein after reconstitution with iron and sulfide); also called Syn-CSK; holoSyn-CSK) MAGSISSMYSPSAGLISLCQSQVRLLQQGLRVDWCGVYLNQEETEQGLVPLVVSHGSTLVESESYGLISLPQGEVSPPMDDFSLPAVPVGVGQLSRRSRLEPPPFDADKRLVLPLVYGEEMVGLLVIHRSQGQWHGEEMMQLEAIAKSLAVACLLDQQQDWYRQAWEEQNQQYQWERQHWADLLHQLRNPLTALKTFSKLLLKRWHGDNKSQQVVEGIVRQGEHLQELLQSFEASQSQGPEAVPLLSSSPVTTIQVLPPADRVETMPLANFSLGEVLPPILLAHQAIAAERNITLTAQIALIDTVVMANRLALREVVNNLLDNGIKYTPNGGLVEVSLALEKVSSSGMDWATLAIADTGYGIPPEDQQKIFERNYRGVQGRGSINGTGLGLAIVADLVAQMGGKITVTSPNGLSRDPDQPGSTFTLWLRSGEQV | – | 8
